From PubChem BioAssay AID248 (DTP/NCI, 2004)
Several values for one entry are separate records, joined by “and”; a condition that tells them apart may be missing. Identical values can stand only once. Inconclusive results and toxic doses are left out. Cut-off read from the data, not from the text of the source: active = T/C of 150% or more; inactive = T/C below 125%.

Test system: L1210 leukemia ip in BDF1 mice, survival T/C
Assay: NCI In Vivo Anticancer Drug Screen. Data for tumor model L1210 Leukemia (intraperitoneal) in B6D2F1 (BDF1) mice
Conditions: endpoint: mean survival time, higher = longer survival
How it was run: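 Transplanted-tumor mice were given test agent; controls received vehicle only. Survival readings from the two groups were divided (treated over control).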

[1] = dose: 50.0 mg/kg/injection, schedule: Q01DX001 (ip), vehicle: carboxymethylcellulose (CMC)
[2] = dose: 100.0 mg/kg/injection, schedule: Q01DX001 (ip), vehicle: carboxymethylcellulose (CMC)
[3] = dose: 200.0 mg/kg/injection, schedule: Q01DX001 (ip), vehicle: carboxymethylcellulose (CMC)
[4] = dose: 400.0 mg/kg/injection, schedule: Q01DX001 (ip), vehicle: carboxymethylcellulose (CMC)
[5] = dose: 100.0 mg/kg/injection, schedule: Q01DX009 (ip), vehicle: Klucel (hydroxypropylcellulose) (HPC)
[6] = dose: 200.0 mg/kg/injection, schedule: Q01DX009 (ip), vehicle: Klucel (hydroxypropylcellulose) (HPC)
[7] = dose: 400.0 mg/kg/injection, schedule: Q01DX009 (ip), vehicle: Klucel (hydroxypropylcellulose) (HPC)
[8] = dose: 100.0 mg/kg/injection, schedule: Q04DX003 (ip), vehicle: saline with Tween-80
[9] = dose: 200.0 mg/kg/injection, schedule: Q04DX003 (ip), vehicle: saline with Tween-80
[10] = dose: 400.0 mg/kg/injection, schedule: Q04DX003 (ip), vehicle: saline with Tween-80
[11] = dose: 100.0 mg/kg/injection, schedule: Q01DX009 (ip), vehicle: saline
[12] = dose: 200.0 mg/kg/injection, schedule: Q01DX009 (ip), vehicle: saline
[13] = dose: 400.0 mg/kg/injection, schedule: Q01DX009 (ip), vehicle: saline
[14] = dose: 100.0 mg/kg/injection, schedule: Q04DX003 (ip), vehicle: Klucel (hydroxypropylcellulose) (HPC)
[15] = dose: 200.0 mg/kg/injection, schedule: Q04DX003 (ip), vehicle: Klucel (hydroxypropylcellulose) (HPC)
[16] = dose: 400.0 mg/kg/injection, schedule: Q04DX003 (ip), vehicle: Klucel (hydroxypropylcellulose) (HPC)
[17] = dose: 50.0 mg/kg/injection, schedule: Q01DX009 (ip), vehicle: saline with Tween-80
[18] = dose: 100.0 mg/kg/injection, schedule: Q01DX009 (ip), vehicle: saline with Tween-80
[19] = dose: 200.0 mg/kg/injection, schedule: Q01DX009 (ip), vehicle: saline with Tween-80
[20] = dose: 100.0 mg/kg/injection, schedule: Q01DX001 (ip), vehicle: saline
[21] = dose: 200.0 mg/kg/injection, schedule: Q01DX001 (ip), vehicle: saline
[22] = dose: 400.0 mg/kg/injection, schedule: Q01DX001 (ip), vehicle: saline

Measured: T/C

COc1cccc(OC)c1CCO
inactive: [1] 88 % of control | [2] 102 % of control | [3] 88 % of control | [4] 100 % of control

Cc1c([N+](=O)[O-])oc2ccc(Cl)cc12
inactive: dose: 50.0 mg/kg/injection, schedule: Q04DX002 (ip), vehicle: Klucel (hydroxypropylcellulose) (HPC) 93 % of control | [5] 100 % of control | dose: 100.0 mg/kg/injection, schedule: Q04DX002 (ip), vehicle: Klucel (hydroxypropylcellulose) (HPC) 87 % of control | [6] 91 % of control | dose: 200.0 mg/kg/injection, schedule: Q04DX002 (ip), vehicle: Klucel (hydroxypropylcellulose) (HPC) 93 % of control | [7] 95 % of control

COc1cc(NCc2ccccc2)ccc1NC(C)=O
inactive: dose: 15.0 mg/kg/injection, schedule: Q01DX001 (ip), vehicle: carboxymethylcellulose (CMC) 98 % of control | dose: 30.0 mg/kg/injection, schedule: Q01DX001 (ip), vehicle: carboxymethylcellulose (CMC) 110 % of control | dose: 75.0 mg/kg/injection, schedule: Q01DX001 (ip), vehicle: carboxymethylcellulose (CMC) 98 % of control

COC(=O)[C@]1(C)CCC[C@]2(C)c3ccc(C(C)C)cc3CC[C@@H]12
inactive: dose: 0.5 mg/kg/injection, schedule: Q01DX009 (ip), vehicle: Klucel (hydroxypropylcellulose) (HPC) 100 % of control | dose: 0.5 mg/kg/injection, schedule: Q04DX003 (ip), vehicle: Klucel (hydroxypropylcellulose) (HPC) 107 % of control | dose: 1.0 mg/kg/injection, schedule: Q01DX009 (ip), vehicle: Klucel (hydroxypropylcellulose) (HPC) 111 % of control | dose: 1.0 mg/kg/injection, schedule: Q04DX003 (ip), vehicle: Klucel (hydroxypropylcellulose) (HPC) 93 % of control | dose: 2.0 mg/kg/injection, schedule: Q01DX009 (ip), vehicle: Klucel (hydroxypropylcellulose) (HPC) 98 % of control | dose: 2.0 mg/kg/injection, schedule: Q04DX003 (ip), vehicle: Klucel (hydroxypropylcellulose) (HPC) 98 % of control | [8] 96 % of control | [9] 107 % of control | [10] 102 % of control

O=CN1CCCc2cc(C(=O)O)ccc21
inactive: [11] 90 % of control | [12] 93 % of control | [13] 86 % of control

CCCCCCCCC(=O)NCCCOC
inactive: [5] 108 % of control | [14] 96 % of control | [6] 111 % of control | [15] 91 % of control | [7] 97 % of control | [16] 91 % of control

CC(C)[As](C)(=O)O
inactive: dose: 6.25 mg/kg/injection, schedule: Q04DX003 (ip), vehicle: Klucel (hydroxypropylcellulose) (HPC) 101 % of control | dose: 12.5 mg/kg/injection, schedule: Q04DX003 (ip), vehicle: Klucel (hydroxypropylcellulose) (HPC) 97 % of control | dose: 25.0 mg/kg/injection, schedule: Q04DX003 (ip), vehicle: Klucel (hydroxypropylcellulose) (HPC) 102 % of control and 103 % of control

CC1CC(C)(C)CC2(C1)OCCCO2 (stereo not given)
inactive: [17] 90 % of control | [18] 102 % of control | [19] 98 % of control

Cc1ccc(NC(=O)c2ccccc2Cl)cc1Cl
inactive: dose: 25.0 mg/kg/injection, schedule: Q04DX004 (ip), vehicle: Klucel (hydroxypropylcellulose) (HPC) 89 % of control | dose: 50.0 mg/kg/injection, schedule: Q04DX004 (ip), vehicle: Klucel (hydroxypropylcellulose) (HPC) 98 % of control | [5] 96 % of control | [11] 110 % of control | [14] 95 % of control | dose: 100.0 mg/kg/injection, schedule: Q04DX003 (ip), vehicle: saline 120 % of control | dose: 100.0 mg/kg/injection, schedule: Q04DX004 (ip), vehicle: Klucel (hydroxypropylcellulose) (HPC) 88 % of control | dose: 135.0 mg/kg/injection, schedule: Q04DX004 (ip), vehicle: Klucel (hydroxypropylcellulose) (HPC) 96 % of control | [6] 94 % of control | [12] 102 % of control | [15] 95 % of control | [7] 98 % of control | [13] 102 % of control | [16] 96 % of control | dose: 400.0 mg/kg/injection, schedule: Q04DX003 (ip), vehicle: saline 115 % of control

CCCCN(CCCC)C(=O)OCC
inactive: [20] 103 % of control | [21] 94 % of control | [22] 101 % of control

Cc1[nH]c(=O)[nH]c(=O)c1CN1CCCCC1
inactive: [8] 100 % of control | [9] 106 % of control | [10] 93 % of control

CC1(C)C2CCC(O)(C(=O)O)C1C2 (stereo not given)
inactive: [1] 106 % of control | [2] 91 % of control | [3] 91 % of control | [4] 100 % of control

CC(C)C#C/C=C/C(C)C
inactive: [17] 95 % of control | [18] 95 % of control | [19] 103 % of control

N/C(=N/N=C/c1ccncc1)N/N=C\c1ccncc1
inactive: dose: 30.0 mg/kg/injection, schedule: Q01DX Z (ip), vehicle: carboxymethylcellulose (CMC) 89 % of control | dose: 30.0 mg/kg/injection, schedule: Q01DX Z (oral), vehicle: carboxymethylcellulose (CMC) 106 % of control | dose: 60.0 mg/kg/injection, schedule: Q01DX Z (ip), vehicle: carboxymethylcellulose (CMC) 87 % of control | dose: 60.0 mg/kg/injection, schedule: Q01DX Z (oral), vehicle: carboxymethylcellulose (CMC) 95 % of control | dose: 120.0 mg/kg/injection, schedule: Q01DX Z (ip), vehicle: carboxymethylcellulose (CMC) 92 % of control | dose: 120.0 mg/kg/injection, schedule: Q01DX Z (oral), vehicle: carboxymethylcellulose (CMC) 97 % of control and 123 % of control | dose: 240.0 mg/kg/injection, schedule: Q01DX Z (oral), vehicle: carboxymethylcellulose (CMC) 101 % of control and 104 % of control | dose: 480.0 mg/kg/injection, schedule: Q01DX Z (oral), vehicle: carboxymethylcellulose (CMC) 101 % of control

COCCCNCCCN1CC1
inactive: dose: 31.25 mg/kg/injection, schedule: Q04DX003 (ip), vehicle: saline 105 % of control | dose: 62.5 mg/kg/injection, schedule: Q01DX009 (ip), vehicle: saline 106 % of control | dose: 62.5 mg/kg/injection, schedule: Q04DX003 (ip), vehicle: saline 114 % of control

Cc1cc(C(=O)O)c2c([nH]1)c(C)cc1nc3ccccc3c12
inactive: [1] 101 % of control | [2] 101 % of control | [3] 108 % of control | [4] 95 % of control

O=c1[nH][nH]c(=S)c2[nH]c(=S)n(Cc3ccccc3)c12
inactive: [20] 90 % of control | [21] 93 % of control | [22] 90 % of control

Cc1ccc(S(=O)(=O)O/N=C/C23c4ccccc4C4C(c5ccccc52)C43)cc1 (stereo not given)
inactive: dose: 25.0 mg/kg/injection, schedule: Q04DX002 (ip), vehicle: saline with Tween-80 100 % of control | dose: 150.0 mg/kg/injection, schedule: Q04DX002 (ip), vehicle: saline with Tween-80 93 % of control | dose: 300.0 mg/kg/injection, schedule: Q04DX002 (ip), vehicle: saline with Tween-80 93 % of control

Cc1ccc(S(=O)(=O)c2ccc(C)cc2)cc1
inactive: [1] 96 % of control | [2] 111 % of control | [3] 100 % of control | [4] 105 % of control

O=C(O)CSC(=S)N1CCOCC1
inactive: dose: 100.0 mg/kg/injection, schedule: Q01DX001 (ip), vehicle: saline with Tween-80 91 % of control | dose: 200.0 mg/kg/injection, schedule: Q01DX001 (ip), vehicle: saline with Tween-80 88 % of control | dose: 400.0 mg/kg/injection, schedule: Q01DX001 (ip), vehicle: saline with Tween-80 94 % of control

O=C1CCC2(CCC(=O)c3ccccc32)C(=O)N1 (stereo not given)
inactive: dose: 50.0 mg/kg/injection, schedule: Q01DX009 (ip), vehicle: Klucel (hydroxypropylcellulose) (HPC) 104 % of control | [5] 104 % of control | [14] 93 % of control | [6] 104 % of control | [15] 93 % of control | [7] 108 % of control | [16] 100 % of control
